One block for each molecule: values may come before it.
What was measured:
HPSE = biological target: T1, HPSE (Homo sapiens, UniProt Q9Y251); assay: HPSE inhibitor study (ELISA-based HPSE activity assay with labeled rhSynd4); assay type: biochemical; settings: 10 ng HPSE, 50 mM NaAc pH 4.0, 37° C. for two hours, OD 450
T1 construct: purchased Bio-Techne
T1 sequence (Q9Y251 158-543 limits assumed): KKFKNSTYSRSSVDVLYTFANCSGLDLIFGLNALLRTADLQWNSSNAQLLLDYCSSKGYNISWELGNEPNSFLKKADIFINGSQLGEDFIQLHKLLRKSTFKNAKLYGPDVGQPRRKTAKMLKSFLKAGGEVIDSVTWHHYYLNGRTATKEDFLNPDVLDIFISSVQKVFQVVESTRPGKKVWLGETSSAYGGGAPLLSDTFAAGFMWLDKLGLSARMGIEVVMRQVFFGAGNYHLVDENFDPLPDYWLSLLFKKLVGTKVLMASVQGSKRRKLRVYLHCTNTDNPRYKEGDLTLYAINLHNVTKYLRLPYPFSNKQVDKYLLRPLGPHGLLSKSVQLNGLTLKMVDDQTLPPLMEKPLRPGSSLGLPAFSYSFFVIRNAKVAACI
T1 sequence (Q9Y251 36-109 limits assumed): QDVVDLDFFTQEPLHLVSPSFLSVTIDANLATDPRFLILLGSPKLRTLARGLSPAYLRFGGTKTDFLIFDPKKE
Method: In order to prepare the sample for the assay, the goat anti-human Syndecan-4 capture antibody was diluted to a working concentration in PBS without carrier protein. A 96-well microplate was immediately coated with 100 μL per well of the diluted capture antibody. The plate was sealed and incubated overnight at room temperature. Each well was subsequently aspirated and washed with wash buffer, repeating the process two times for a total of three washes. The wash buffer is 25 mM Tris (pH 7.6), 137 mM NaCl, and 0.01% Tween (TBST). Each well was washed by filling each well with 400 μL of wash buffer using a squirt bottle, manifold dispenser, or autowasher. After the last wash, any remaining wash buffer was removed by aspirating or by inverting the plate and blotting it against clean paper towels. The microplate was then blocked by adding 300 μL of reagent diluent to each well and incubating the microplate for a minimum of 1 hour. The microplate was then aspirated/washed as described above for a total of three washes, and the microplate was thus ready for sample addition.
To perform the ELISA assay, 100 μL of the HPSE treated mixture diluted with 1% BSA in PBS buffer were added per well. The HPSE treated mixture was diluted such that the concentration of rhSynd4 was 25 ng/ml. […]
The absorbance (OD 450) for each of the three compounds was determined using a microplate reader set to 450 nm. […]

[1] = biological target: goat anti-human lumican capture antibody; assay: ELISA detection of KS non-reducing end labeled recombinant lumican; assay type: binding; settings: 0-100 ng labeled lumican, 80 ng/well capture antibody, OD 450
Method: This study confirmed that the endoglycosidase activity assay of this disclosure is applicable to other endoglycosidases in addition to HPSE. An ELISA assay was first used to detect labeled recombinant lumican. The non-reducing ends of KS chains on recombinant human lumican were labeled through in vitro incorporation of GlcNAz by B3GNT2 (a KS specific GlcNAc transferase) according to the procedure described in Example 2 above. Increasing amounts of the labeled lumican (0-100 ng) were subsequently immobilized on a 96-well plate coated with 80 ng/well of goat anti-human lumican capture antibody. A DuoSet ELISA kit of Human Lumican was used to perform an ELISA assay similarly to the procedure described in Example 4 above. The absorbance (OD 450) of each well was determined using a microplate reader set to 450 nm. FIG. 8 is a graph of the OD 450 of increasing amounts of labeled lumican. The data was fit to the equation y=Cx/(Kd+x) to obtain curve 802, where Kd is the ligand-receptor binding affinity (dissociation constant for lumican bound to the capture antibody).

[2] = biological target: goat anti-human Syndecan-4 capture antibody; assay: ELISA detection of HS non-reducing end labeled rhSynd4; assay type: binding; settings: 0-50 ng labeled rhSynd4, 80 ng/well capture antibody, OD 450, fit y=Cx/(Kd+x)
Method: In order to establish a high throughput compatible method for HS detection, an ELISA assay was used to attempt to detect labeled rhSynd4. The non-reducing ends of HS chains on rhSynd4 were labeled according to Example 2 above. Increasing amounts of the labeled rhSynd4 (0-50 ng) were subsequently immobilized on a 96-well plate coated with 80 ng/well of goat anti-human Syndecan-4 capture antibody. The Syndecan-4 DuoSet kit was used to perform an ELISA assay (described in detail in Example 4 below). The absorbance (OD 450) of each well was determined using a microplate reader set to 450 nanometers (nm).
FIG. 4 is a graph of the OD 450 of increasing amounts of labeled rhSynd4. The data was fit to the equation y=Cx/(Kd+x) to obtain curve 402, where Kd is the ligand-receptor binding affinity (dissociation constant for rhSynd4 bound to the capture antibody).

EC50 (HPSE): 0.12 µg/mL
Molecule: heparin

Kd (dissociation constant for lumican bound to the capture antibody) [1]: 7.58 ng
Molecule: labeled lumican: recombinant human lumican with KS non-reducing ends labeled with GlcNAz by B3GNT2

The remaining lines, values behind:

Molecule: chondroitin sulfate
EC50 (HPSE): 0.39 µg/mL

B1: labeled rhSynd4: recombinant human Syndecan-4 with HS non-reducing ends labeled with GlcNAz and biotin by click chemistry (protein, UniProt P31431 19-198, looked up)
Syndecan-4: ESIRETEVIDPQDLLEGRYFSGALPDDEDVVGPGQESDDFELSGSGDLDDLEDSMIGPEVVHPLVPLDNHIPERAGSGSQVPTEPKKLEENEVIPKRISPVEESEDVSNKVSMSSTVQGSNIFERTEVLAALIVGGIVGILFAVFLILLLMYRMKKKDEGSYDLGKKPIYKKAPTNEFYA
modifications: HS ends labeled GlcNAz and biotin
notes: recombinant human Syndecan-4 with HS non-reducing ends labeled with GlcNAz and biotin by click chemistry
Kd (dissociation constant for rhSynd4 bound to the capture antibody) [2]: 3.4 ng
